Experimental data taken from ChEMBL document CHEMBL4725429, “Discovery and Evaluation of Pyrazolo[3,4-d]pyridazinone as a Potent and Orally Active Irreversible BTK Inhibitor” (ACS Med Chem Lett, 2020).
pIC50: −log10 of the molar value.

How the values were obtained:
[1] = biological target: Tyrosine-protein kinase BTK (Homo sapiens, UniProt Q06187); test: Inhibition of recombinant human His-tagged full length BTK expressed in baculovirus expression system using TK1 as substrate incubated for 60 mins by HTRF assay
Sequence of Tyrosine-protein kinase BTK (Q06187 whole entry): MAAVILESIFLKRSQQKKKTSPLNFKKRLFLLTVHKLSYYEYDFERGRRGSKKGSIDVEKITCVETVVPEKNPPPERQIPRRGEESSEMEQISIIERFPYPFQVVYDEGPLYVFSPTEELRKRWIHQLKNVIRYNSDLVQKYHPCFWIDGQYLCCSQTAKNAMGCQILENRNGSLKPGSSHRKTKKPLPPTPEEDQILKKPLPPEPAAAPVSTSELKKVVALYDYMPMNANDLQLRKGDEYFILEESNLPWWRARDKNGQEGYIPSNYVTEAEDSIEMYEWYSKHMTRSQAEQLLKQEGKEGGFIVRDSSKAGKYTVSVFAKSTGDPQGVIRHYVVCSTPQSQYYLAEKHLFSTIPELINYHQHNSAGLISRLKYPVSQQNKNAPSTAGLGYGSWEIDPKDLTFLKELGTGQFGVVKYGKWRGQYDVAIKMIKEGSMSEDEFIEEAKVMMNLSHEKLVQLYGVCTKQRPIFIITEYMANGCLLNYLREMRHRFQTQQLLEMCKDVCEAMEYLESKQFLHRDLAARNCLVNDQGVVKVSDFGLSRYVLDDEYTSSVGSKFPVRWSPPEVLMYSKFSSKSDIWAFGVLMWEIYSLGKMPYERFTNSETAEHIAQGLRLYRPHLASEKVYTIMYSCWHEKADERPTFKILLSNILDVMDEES

[2] = Cmax in BALB/c mouse 2 mg/kg, po measured upto 24 hrs by LC-MS/MS analysis; format: ADME, organism-based; parameters: route oral, dose 2 mg/kg, time <=24; conditions: in vivo
[3] = AUC in BALB/c mouse 2 mg/kg, po measured upto 24 hrs by LC-MS/MS analysis; format: ADME, organism-based; parameters: route oral, dose 2 mg/kg, time <=24; conditions: in vivo
[4] = Protein binding in human plasma at 2 uM incubated for 4 hrs by LC-MS/MS analysis; format: ADME, cell-free; conditions: read-out: PPB (converted)
[5] = Protein binding in rat plasma at 2 uM incubated for 4 hrs by LC-MS/MS analysis; format: ADME, cell-free; conditions: read-out: PPB (converted)
[6] = Protein binding in mouse plasma at 2 uM incubated for 4 hrs by LC-MS/MS analysis; format: ADME, cell-free; conditions: read-out: PPB (converted)
Cytochrome P450 2D6 = Cytochrome P450 2D6 (Homo sapiens, UniProt P10635); test: Inhibition of human liver microsome CYP2D6 using dextromethorphan as substrate preincubated for 10 mins followed by substrate and NADPH addition and measured after 10 mins by LC-MS/MS analysis
Sequence of Cytochrome P450 2D6 (P10635 whole entry): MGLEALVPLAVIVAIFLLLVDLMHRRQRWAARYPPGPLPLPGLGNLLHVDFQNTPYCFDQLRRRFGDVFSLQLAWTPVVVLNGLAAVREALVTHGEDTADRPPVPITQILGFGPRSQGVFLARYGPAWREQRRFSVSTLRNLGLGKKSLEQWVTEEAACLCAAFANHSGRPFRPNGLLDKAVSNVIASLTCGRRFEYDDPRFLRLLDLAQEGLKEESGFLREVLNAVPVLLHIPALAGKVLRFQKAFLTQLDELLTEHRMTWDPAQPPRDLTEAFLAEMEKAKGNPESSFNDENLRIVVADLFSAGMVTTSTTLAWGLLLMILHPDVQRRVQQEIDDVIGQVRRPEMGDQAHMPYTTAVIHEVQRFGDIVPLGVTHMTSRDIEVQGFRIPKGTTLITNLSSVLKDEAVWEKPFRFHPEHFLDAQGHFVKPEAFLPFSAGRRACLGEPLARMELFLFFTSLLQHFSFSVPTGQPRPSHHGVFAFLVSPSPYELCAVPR

Cytochrome P450 2C19 = Cytochrome P450 2C19 (Homo sapiens, UniProt P33261); test: Inhibition of human liver microsome CYP2C19 using S-mephenytoin as substrate preincubated for 10 mins followed by substrate and NADPH addition and measured after 10 mins by LC-MS/MS analysis
Sequence of Cytochrome P450 2C19 (P33261 whole entry): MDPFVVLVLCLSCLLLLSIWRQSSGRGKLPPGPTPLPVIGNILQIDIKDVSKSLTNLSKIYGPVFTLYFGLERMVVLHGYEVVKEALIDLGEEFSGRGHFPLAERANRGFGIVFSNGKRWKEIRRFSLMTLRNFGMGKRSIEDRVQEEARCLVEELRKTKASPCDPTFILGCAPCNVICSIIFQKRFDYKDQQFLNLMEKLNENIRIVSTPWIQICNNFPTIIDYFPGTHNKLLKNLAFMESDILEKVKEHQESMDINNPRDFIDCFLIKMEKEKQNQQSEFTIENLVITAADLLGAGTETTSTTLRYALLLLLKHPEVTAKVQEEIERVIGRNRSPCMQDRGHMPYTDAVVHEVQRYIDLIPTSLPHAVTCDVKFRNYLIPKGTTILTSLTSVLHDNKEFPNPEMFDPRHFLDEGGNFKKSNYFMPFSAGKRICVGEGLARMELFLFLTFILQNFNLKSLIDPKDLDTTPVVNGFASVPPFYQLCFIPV

Cytochrome P450 1A2 = biological target: T1, Cytochrome P450 1A2 (Homo sapiens, UniProt P05177); test: Inhibition of human liver microsome CYP1A2 using phenacetin as substrate preincubated for 10 mins followed by substrate and NADPH addition and measured after 10 mins by LC-MS/MS analysis
T1 sequence (P05177 whole entry): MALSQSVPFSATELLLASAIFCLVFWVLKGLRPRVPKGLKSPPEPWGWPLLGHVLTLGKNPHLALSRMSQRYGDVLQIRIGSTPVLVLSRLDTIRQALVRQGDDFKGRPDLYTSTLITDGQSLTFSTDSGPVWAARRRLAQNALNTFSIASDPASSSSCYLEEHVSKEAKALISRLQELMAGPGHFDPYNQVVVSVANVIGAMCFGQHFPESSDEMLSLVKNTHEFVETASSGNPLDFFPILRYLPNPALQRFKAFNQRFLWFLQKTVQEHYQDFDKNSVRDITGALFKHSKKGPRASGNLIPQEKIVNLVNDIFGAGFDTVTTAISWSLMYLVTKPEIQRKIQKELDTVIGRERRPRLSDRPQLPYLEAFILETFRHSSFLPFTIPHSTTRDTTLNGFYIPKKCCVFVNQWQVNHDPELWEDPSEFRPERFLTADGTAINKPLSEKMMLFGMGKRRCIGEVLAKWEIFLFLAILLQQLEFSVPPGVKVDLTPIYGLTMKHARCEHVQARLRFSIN

Cytochrome P450 2C9 = Cytochrome P450 2C9 (Homo sapiens, UniProt P11712); test: Inhibition of human liver microsome CYP2C9 using diclofenac as substrate preincubated for 10 mins followed by substrate and NADPH addition and measured after 10 mins by LC-MS/MS analysis
Sequence of Cytochrome P450 2C9 (P11712 whole entry): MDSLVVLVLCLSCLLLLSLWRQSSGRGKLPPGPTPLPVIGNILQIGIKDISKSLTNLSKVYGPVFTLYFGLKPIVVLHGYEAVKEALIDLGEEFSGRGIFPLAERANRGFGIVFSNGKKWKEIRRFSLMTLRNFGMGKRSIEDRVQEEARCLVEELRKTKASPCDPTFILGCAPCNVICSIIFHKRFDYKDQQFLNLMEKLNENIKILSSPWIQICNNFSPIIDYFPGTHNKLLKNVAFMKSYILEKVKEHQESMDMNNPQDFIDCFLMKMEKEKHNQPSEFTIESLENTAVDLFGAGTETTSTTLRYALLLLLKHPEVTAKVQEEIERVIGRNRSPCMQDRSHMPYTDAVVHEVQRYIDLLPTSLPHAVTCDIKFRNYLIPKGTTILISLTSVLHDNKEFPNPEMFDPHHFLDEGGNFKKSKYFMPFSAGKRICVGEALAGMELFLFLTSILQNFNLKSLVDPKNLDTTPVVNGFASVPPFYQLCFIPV

Cytochrome P450 3A4 = Cytochrome P450 3A4 (Homo sapiens, UniProt P08684); test: Inhibition of human liver microsome CYP3A4 using midazolam as substrate preincubated for 10 mins followed by substrate and NADPH addition and measured after 10 mins by LC-MS/MS analysis
Sequence of Cytochrome P450 3A4 (P08684 whole entry): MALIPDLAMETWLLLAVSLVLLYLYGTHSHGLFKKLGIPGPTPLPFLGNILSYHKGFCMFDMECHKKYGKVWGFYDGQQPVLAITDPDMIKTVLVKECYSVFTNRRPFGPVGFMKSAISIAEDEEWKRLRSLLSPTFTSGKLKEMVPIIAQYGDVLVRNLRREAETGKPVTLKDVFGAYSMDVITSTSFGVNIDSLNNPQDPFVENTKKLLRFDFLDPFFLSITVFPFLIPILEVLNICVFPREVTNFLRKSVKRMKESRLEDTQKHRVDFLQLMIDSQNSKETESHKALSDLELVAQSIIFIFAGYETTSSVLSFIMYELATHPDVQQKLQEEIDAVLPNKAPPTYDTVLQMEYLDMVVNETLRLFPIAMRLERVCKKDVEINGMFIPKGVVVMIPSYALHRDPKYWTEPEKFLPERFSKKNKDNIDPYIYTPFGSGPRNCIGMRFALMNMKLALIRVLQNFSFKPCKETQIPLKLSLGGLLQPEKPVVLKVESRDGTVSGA

[7] = Half life in Sprague-Dawley rat at 2 mg/kg, iv measured upto 24 hrs by LC-MS/MS analysis; format: ADME, organism-based; conditions: in vivo
[8] = Clearance in Sprague-Dawley rat at 2 mg/kg, iv measured upto 24 hrs by LC-MS/MS analysis; conditions: in vivo
[9] = Volume of distribution at steady state in Sprague-Dawley rat at 2 mg/kg, iv measured upto 24 hrs by LC-MS/MS analysis; format: ADME, organism-based; conditions: in vivo, read-out: Vdss
[10] = Cmax in Sprague-Dawley rat at 2 mg/kg, iv measured upto 24 hrs by LC-MS/MS analysis; format: ADME, organism-based; parameters: route intravenous, time <=24; conditions: in vivo
[11] = AUC (0 to last) in Sprague-Dawley rat at 2 mg/kg, iv measured upto 24 hrs by LC-MS/MS analysis; format: ADME, organism-based; parameters: route intravenous, dose 2 mg/kg, time <=24; conditions: in vivo
[12] = AUC (0 to last) in Sprague-Dawley rat at 10 mg/kg, po measured upto 24 hrs by LC-MS/MS analysis; format: ADME, organism-based; parameters: route oral, dose 10 mg/kg, time <=24; conditions: in vivo
[13] = Oral bioavailability in Sprague-Dawley rat at 10 mg/kg measured upto 24 hrs by LC-MS/MS analysis; format: ADME, organism-based; conditions: in vivo
[14] = Half life in BALB/c mouse at 1 mg/kg, iv measured upto 24 hrs by LC-MS/MS analysis; format: ADME, organism-based; conditions: in vivo
[15] = Clearance in BALB/c mouse at 1 mg/kg, iv measured upto 24 hrs by LC-MS/MS analysis; conditions: in vivo
[16] = Volume of distribution at steady state in BALB/c mouse at 1 mg/kg, iv measured upto 24 hrs by LC-MS/MS analysis; format: ADME, organism-based; conditions: in vivo, read-out: Vdss
[17] = AUC (0 to last) in BALB/c mouse at 1 mg/kg, iv measured upto 24 hrs by LC-MS/MS analysis; format: ADME, organism-based; parameters: route intravenous, dose 1 mg/kg, time <=24; conditions: in vivo
[18] = Oral bioavailability in BALB/c mouse at 2 mg/kg measured upto 24 hrs by LC-MS/MS analysis; format: ADME, organism-based; conditions: in vivo
Mus musculus = test: Antiarthritic activity in po dosed collagen-induced arthritis mouse model assessed as clinical score administered for 14 days and measured for 21 days after dosing; format: functional, organism-based; conditions: dose mg/kg 3-10, time 14.0 day
[19] = Toxicity in mouse assessed as drug tolerance at 3 and 10 mg/kg, po administered for 14 days and observed for 21 days; format: organism-based; conditions: in vivo, 336 h, dose 3-10 mg/kg, time 14 day
[20] = Toxicity in mouse assessed as body weight loss at 3 and 10 mg/kg, po administered for 14 days and observed for 21 days; format: organism-based; conditions: in vivo, 336 h, dose 3-10 mg/kg, time 14 day

C=CC(=O)N1CCC[C@@H](n2nc(-c3ccc(Oc4ccccc4)cc3)c3c(N)noc(=O)c32)C1
pIC50 [1]: < 6.00

CN(C)C/C=C/C(=O)N(C)CCn1nc(-c2ccc(Oc3ccccc3)cc2)c2c(N)n[nH]c(=O)c21
pIC50 [1]: 7.46

C=CC(=O)N1CCCC(n2nc(-c3ccc(Oc4ccccc4)cc3)c3cc4c(N)noc4cc32)C1 (stereo not drawn)
pIC50 [1]: 5.33

C=CC(=O)N1CCC[C@@H](n2nc(-c3ccc(Oc4ccccc4)cc3)c3c(N)n[nH]c(=O)c32)C1
pIC50 [1]: 8.68 | Cmax [2]: 252 nM | AUC at 24 h [3]: 128 ng·h/mL | fraction unbound at 4 h, 2 µM [4]: 0.025 | fraction unbound at 4 h, 2 µM [5]: 0.003 | fraction unbound at 4 h, 2 µM [6]: 0.047 | pIC50 (Cytochrome P450 2D6): < 4.00 | pIC50 (Cytochrome P450 2C19): 4.36 | pIC50 (Cytochrome P450 1A2): < 4.00 | pIC50 (Cytochrome P450 2C9): 4.40 | pIC50 (Cytochrome P450 3A4): 4.43 | half-life ([7]; Sprague-Dawley): 19.2 min | clearance [8]: 54.6 mL/min/kg | Vd [9]: 1.55 L/kg | Cmax ([10]; Sprague-Dawley, read-out: Cmax): 466 ng/mL | AUC(0-t) at 24 h ([11]; Sprague-Dawley): 604 ng·h/mL | AUC(0-t) at 24 h [12]: 642 ng·h/mL | bioavailability [13]: 23.7% | half-life [14]: 25.2 min | clearance [15]: 31.3 mL/min/kg | Vd [16]: 0.82 L/kg | AUC(0-t) at 24 h [17]: 576 ng·h/mL | bioavailability [18]: 11.2% | Activity (Mus musculus): Dose-dependent effect | Activity [19]: Non-Toxic | Activity [20]: Non-Toxic

C=CC(=O)N1CCC[C@@H](Nc2ncnc(N)c2C(=O)c2ccc(Oc3ccccc3)cc2)C1
pIC50 [1]: 6.04

N#C/C(=C\C1CC1)C(=O)N1CCC[C@@H](n2nc(-c3ccc(Oc4ccccc4)cc3)c3c(N)n[nH]c(=O)c32)C1
pIC50 [1]: 7.66

C=CC(=O)N1CCC[C@@H](n2nc(-c3ccc(Oc4ccccc4)cc3)c3c(N)nn(CC)c(=O)c32)C1
pIC50 [1]: < 6.00

C=CC(=O)N1CCC[C@@H](n2nc(-c3ccc(Oc4ccccc4)cc3)c3c(N)ncnc32)C1 [IBRUTINIB]
Cmax [2]: 55.3 nM | AUC at 24 h [3]: 21.4 ng·h/mL | fraction unbound at 4 h, 2 µM [4]: 0.031 | fraction unbound at 4 h, 2 µM [5]: 0.022 | fraction unbound at 4 h, 2 µM [6]: 0.038 | t1/2 ([7]; 2 mg/kg, 24 h): 19.2 min | Cmax ([10]; 24 h): 150 ng/mL | AUClast ([11]; 24 h): 643 ng·h/mL | AUC(0-t) at 24 h [12]: 318 ng·h/mL | bioavailability [13]: 10.3% | half-life [14]: 20.4 min | AUC(0-t) at 24 h [17]: 628 ng·h/mL | bioavailability [18]: 1.8%

C=CC(=O)N1CCC[C@@H](Nc2ncnc3[nH]c(=O)c(-c4ccc(Oc5ccccc5)cc4)cc23)C1
pIC50 [1]: < 5.00

C=CC(=O)N1CC2(CC(n3nc(-c4ccc(Oc5ccccc5)cc4)c4c(N)n[nH]c(=O)c43)C2)C1
pIC50 [1]: 7.34

C=CC(=O)N[C@H]1CC[C@@H](n2nc(-c3ccc(Oc4ccccc4)cc3)c3c(N)n[nH]c(=O)c32)CC1
pIC50 [1]: 8.80 | Cmax [2]: 290 nM | AUC at 24 h [3]: 161 ng·h/mL

CC#CC(=O)N1CCC[C@@H](n2nc(-c3ccc(Oc4ccccc4)cc3)c3c(N)n[nH]c(=O)c32)C1
pIC50 [1]: 7.92

C=CC(=O)N1CCC[C@@H](n2nc(-c3ccc(Oc4ccccc4)cc3)c3c(N)nn(CC(F)(F)F)c(=O)c32)C1
pIC50 [1]: < 6.00

C=CC(=O)NC1CCC[C@@H](n2nc(-c3ccc(Oc4ccccc4)cc3)c3c(N)n[nH]c(=O)c32)C1 (stereo partly drawn)
pIC50 [1]: 8.00

CN(C)C/C=C/C(=O)N1CCC[C@@H](n2nc(-c3ccc(Oc4ccccc4)cc3)c3c(N)n[nH]c(=O)c32)C1
pIC50 [1]: 8.59

C=CC(=O)N1CCC[C@@H](Nc2ncnc(N)c2-n2ncc3cc(Oc4ccccc4)ccc32)C1
pIC50 [1]: 5.78

C=CC(=O)N1CCCCC(n2nc(-c3ccc(Oc4ccccc4)cc3)c3c(N)n[nH]c(=O)c32)C1 (stereo not drawn)
pIC50 [1]: 8.17

C=CS(=O)(=O)N1CCC[C@@H](n2nc(-c3ccc(Oc4ccccc4)cc3)c3c(N)n[nH]c(=O)c32)C1
pIC50 [1]: 8.38

C=CC(=O)N1CC[C@@H](n2nc(-c3ccc(Oc4ccccc4)cc3)c3c(N)n[nH]c(=O)c32)C1
pIC50 [1]: 8.85 | Cmax [2]: 137 nM | AUC at 24 h [3]: 68 ng·h/mL

Nc1n[nH]c(=O)c2c1c(-c1ccc(Oc3ccccc3)cc1)nn2[C@@H]1CCCN(C(=O)/C=C/CN2CCOCC2)C1
pIC50 [1]: 7.89

C=CC(=O)N1CCCC(n2nc(-c3ccc(Oc4ccccc4)cc3)c3cc4c(N)ncnc4cc32)C1 (stereo not drawn)
pIC50 [1]: 5.91

C=CC(=O)N(C)CCn1nc(-c2ccc(Oc3ccccc3)cc2)c2c(N)n[nH]c(=O)c21
pIC50 [1]: 8.92 | Cmax [2]: 123 nM | AUC at 24 h [3]: 49.5 ng·h/mL

C=CC(=O)N1CC(n2nc(-c3ccc(Oc4ccccc4)cc3)c3c(N)n[nH]c(=O)c32)C1
pIC50 [1]: 8.01

C=CC(=O)N1CCC[C@@H](Nc2ncnc3[nH]c4ccc(Oc5ccccc5)cc4c(=O)c23)C1
pIC50 [1]: < 5.00

C=CC(=O)N1CCC[C@@H](n2nc(-c3ccc(Oc4ccccc4)cc3)c3c(N)nn(C)c(=O)c32)C1
pIC50 [1]: 6.80
